Columns and labels:
Assay in all cases: CTG-3D luminescence at 96 h relative to day-0 seeding control (ratio to day 0); higher = more growth / less cytotoxicity; PDxO 3D drug screen, 96 h, CTG-3D normalised to day-0 seeding control.
HCI-001 = tested on: HCI-001 (organoid from a triple-negative breast cancer xenograft)
HCI-002 = tested on: HCI-002 (organoid from a triple-negative breast cancer xenograft)
HCI-017.E2 = tested on: HCI-017.E2 (organoid from an ER-positive breast cancer xenograft)
HCI-023 = tested on: HCI-023 (organoid from a triple-negative breast cancer xenograft)
MDA-MB-231 = tested on: MDA-MB-231

CC(=O)O[C@H]1C(=O)[C@@]2(C)[C@H]([C@H](OC(=O)c3ccccc3)[C@]3(O)C[C@H](OC(=O)[C@H](O)[C@@H](NC(=O)c4ccccc4)c4ccccc4)C(C)=C1C3(C)C)[C@]1(OC(C)=O)CO[C@@H]1C[C@@H]2O [paclitaxel]
CTG-3D luminescence at 96 h
Conditions | 12.5 pM | 0.00025 µM | 0.005 µM | 0.1 µM | 1 µM | 10 µM | 100 µM | 625 fM
HCI-001, days in culture: 240 | 1.49 | 1.15 | 0.619 | 0.709 | 0.952 | 0.995 | 1.03 | 1.1
HCI-001, days in culture: 260 | 2.45 | 1.13 | 1.23 | 1.27 | 1.14 | 1.08 | 0.703 | 1.55
HCI-001, days in culture: 269 | 1.48 | 1.52 | 0.95 | 0.728 | 0.749 | 0.987 | 0.92 | 1.27
HCI-001, days in culture: 327 | 1.26 | 0.725 | 1.04 | 0.686 | 1.06 | 0.714 | 0.685 | 1.53
HCI-001, days in culture: 346 | 1.29 | 1.24 | 1.16 | 0.568 | 0.791 | 0.655 | 0.947 | 1.18
HCI-001, days in culture: 364 | 1.37 | 1.15 | 1.31 | 0.657 | 0.699 | 0.681 | 0.715 | 1.49
HCI-002, days in culture: 62 | 2.36 | 2.52 | 1.34 | 0.186 | 0.146 | 0.236 | 0.316 | 2.73
HCI-002, days in culture: 82 | 3.27 | 3.2 | 0.859 | 0.217 | 0.193 | 0.224 | 0.174 | 2.8
HCI-002, days in culture: 91 | 3.82 | 3.68 | 1.54 | 0.26 | 0.19 | 0.258 | 0.36 | 4.44
HCI-002, days in culture: 191 | 2.76 | 2.96 | 1.17 | 0.23 | 0.192 | 0.252 | 0.474 | 2.61
HCI-002, days in culture: 209 | 2.24 | 2.21 | 1.2 | 0.194 | 0.195 | 0.158 | 0.174 | 2.26
HCI-002, days in culture: 227 | 5 | 5.22 | 3 | 0.418 | 0.279 | 0.365 | 0.464 | 5
HCI-017.E2, days in culture: 85 | 2.33 | 1.88 | 1.23 | 0.935 | 1.09 | 1.04 | 0.81 | 1.92
HCI-023, days in culture: 111 | 1.34 | 1.27 | 0.476 | 0.484 | 0.433 | 0.474 | 0.492 | 1.58
HCI-023, days in culture: 128 | 1.36 | 1.38 | 0.502 | 0.609 | 0.483 | 0.786 | 0.605 | 1.41

CTG-3D luminescence at 96 h
Conditions | 12.5 pM | 0.00025 µM | 0.005 µM | 0.1 µM | 1 µM | 10 µM | 100 µM | 625 fM
HCI-017.E2 | 1.06 | 1.2 | 1.2 | 1.2 | 1.17 | 1.23 | 1.3 | 1.35
MDA-MB-231 | 3.73 | 3.45 | 2.71 | 2.03 | 2 | 2.42 | 1.09 | 3.85

From the supplement of paper PMC8882468
